The text below walks through data of publication PMC5634478, “Usefulness of kidney slices for functional analysis of apical reabsorptive transporters” (Scientific Reports, 2017).

One data set has as its system Oct2. Particulars: read-out: IC 50 for Oct2; cited from earlier work.
The next data set addresses T1, Octn1 (Mus musculus, UniProt Q9Z306).
T1 construct: between native Octn1 in kidney tissues and transporter-gene transfected cells; from tissue; host or cells: mouse kidney slices (0.3 mm; male ICR mice, or C57BL/6J-backcrossed wild-type and Octn1-/- mice)
T1 sequence (Q9Z306 1-553): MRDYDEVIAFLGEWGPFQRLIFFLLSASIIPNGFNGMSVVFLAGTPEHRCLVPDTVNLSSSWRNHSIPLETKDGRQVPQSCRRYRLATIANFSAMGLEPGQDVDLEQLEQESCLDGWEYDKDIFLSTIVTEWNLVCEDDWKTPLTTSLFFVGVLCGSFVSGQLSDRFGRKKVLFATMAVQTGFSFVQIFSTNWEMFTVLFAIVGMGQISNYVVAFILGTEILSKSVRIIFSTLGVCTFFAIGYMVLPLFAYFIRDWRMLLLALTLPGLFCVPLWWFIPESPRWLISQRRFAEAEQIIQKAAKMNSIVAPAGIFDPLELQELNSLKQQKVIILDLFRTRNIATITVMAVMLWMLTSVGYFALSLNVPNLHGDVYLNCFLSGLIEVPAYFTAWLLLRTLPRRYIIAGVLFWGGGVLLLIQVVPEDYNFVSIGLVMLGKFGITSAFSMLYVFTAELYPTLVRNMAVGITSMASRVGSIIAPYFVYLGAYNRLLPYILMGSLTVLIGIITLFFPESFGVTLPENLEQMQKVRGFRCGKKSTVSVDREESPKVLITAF
As to the kind of experiment: Uptake of [3H]ergothioneine by mice kidney slices. Type of data set: in vitro ADME. Particulars: for inhibition of [3H]ergothioneine uptake by kidney slices at low inhibitor concentration: 0.5 mM carnitine, 0.1 mM cimetidine; for effect on Na+-dependent uptake of [3H]ergothioneine into mice kidney slices: Fig. 3A. Here is the method: (§1) Uptake studies using mouse kidney slices were carried out as described in a previous report after slight modifications. The slices of whole kidneys were prepared with a microslicer (Zero 1; Dosaka EM, Kyoto, Japan), and the renal pelvis portion was removed. Prepared slices (0.3 mm thick) of whole kidneys from male mice were immediately put in ice-cold oxygenated transport buffer (130 mM NaCl, 4.8 mM KCl, 1.2 mM CaCl2, 1.2 mM MgSO4, 1.2 mM KH2PO4 and 25 mM HEPES, adjusted to pH 7.4). When uptake was conducted in Na^+-free condition, NaCl was replaced with N-methyl-D-glucamine (NMG) in transport buffer. Three or four slices from one mouse, weighing each slice 2 to 10 mg, were randomly selected and then pre-incubated in a 24-well plate with 1.0 ml of oxygenated transport buffer in each well at 37 °C for 5 min. After pre-incubation, the kidney slices were put into transport buffer containing radiolabeled substrates with or without inhibitors to initiate the uptake reaction. The uptake reactions were carried out at 37 °C for an appropriate time, and then each slice was rapidly removed from the transport buffer, washed twice in ice-cold transport buffer, blotted on filter paper and weighed. For measurement of radiolabeled compounds, the slices were dissolved in 0.15 ml of 1 N NaOH. Then, the lysate was neutralized with HCl. The apparent uptake of [^14C]inulin was evaluated in independent experiments (n = 3) to estimate the volume of water adhering to the kidney slices after an incubation. […] Viability of the isolated kidney slices was assessed as described in the supplemental file.
Radioactivity was quantified with a liquid scintillation counter (Aloka, Tokyo, Japan). To calculate kinetic parameters for carrier-mediated uptake of test substrates, uptake rate was fitted to eq. (1) by means of a nonlinear least-squares regression analysis using MULTI program[36]:1 v=Vmax×s/(Km+s) where v, s, K m, and V max are the uptake rate of substrate, the substrate concentration in the medium, the apparent Michaelis-Menten constant, and the maximal uptake rate, respectively.
(§2) The half-inhibitory concentration (IC 50) values of inhibitors were obtained by examining their inhibitory effects on uptake of test substrates according to the following equation (2):2 %ofcontrol=IC50/(IC50+I) where % of control represents inhibition rate in the presence of inhibitors and I is inhibitor concentration.

A further data set has as its system Mate1. The note with it: read-out: IC 50 for Mate1; cited from earlier work.
In the next data set the target is Mouse Octn1 (Mus musculus, UniProt Q9Z306). Particulars: Octn1-expressing HEK293 cells, previous report, cited from earlier work.
A further data set relates to Pept1/2. Kind of data set: Uptake of [3H]Gly-Sar by mice kidney slices. Particulars: for effect on uptake of [3H]Gly-Sar by mice kidney slices: 5 mM Gly-Leu, 100 μM cephadroxil, 37 °C. Type of data set: in vitro ADME. The protocol: Uptake studies using mouse kidney slices were carried out as described in a previous report after slight modifications. The slices of whole kidneys were prepared with a microslicer (Zero 1; Dosaka EM, Kyoto, Japan), and the renal pelvis portion was removed. Prepared slices (0.3 mm thick) of whole kidneys from male mice were immediately put in ice-cold oxygenated transport buffer (130 mM NaCl, 4.8 mM KCl, 1.2 mM CaCl2, 1.2 mM MgSO4, 1.2 mM KH2PO4 and 25 mM HEPES, adjusted to pH 7.4). When uptake was conducted in Na^+-free condition, NaCl was replaced with N-methyl-D-glucamine (NMG) in transport buffer. Three or four slices from one mouse, weighing each slice 2 to 10 mg, were randomly selected and then pre-incubated in a 24-well plate with 1.0 ml of oxygenated transport buffer in each well at 37 °C for 5 min. After pre-incubation, the kidney slices were put into transport buffer containing radiolabeled substrates with or without inhibitors to initiate the uptake reaction. The uptake reactions were carried out at 37 °C for an appropriate time, and then each slice was rapidly removed from the transport buffer, washed twice in ice-cold transport buffer, blotted on filter paper and weighed. For measurement of radiolabeled compounds, the slices were dissolved in 0.15 ml of 1 N NaOH. Then, the lysate was neutralized with HCl. The apparent uptake of [^14C]inulin was evaluated in independent experiments (n = 3) to estimate the volume of water adhering to the kidney slices after an incubation. In this study, observed extracellular adhered water space was 0.128 ± 0.004 μL/5 min/mg kidney. Viability of the isolated kidney slices was assessed as described in the supplemental file.
Radioactivity was quantified with a liquid scintillation counter (Aloka, Tokyo, Japan). To calculate kinetic parameters for carrier-mediated uptake of test substrates, uptake rate was fitted to eq. […]

In another data set the test system is PEPT1. More on the design: method as in PMID 11004485. The note with it: cited from earlier work.
A further data set concerns PEPT2. Set-up: method as in PMID 15862787. The note with it: cited from earlier work.
The subject of the next data set is Sglt2. More on the design: method as in PMID 22139434. The note with it: cited from earlier work.
Data set [1] addresses T2, Mouse Octn2 (Mus musculus, UniProt Q9Z0E8).
T2 construct: expressed in transfected cells; host or cells: HEK293
T2 sequence (Q9Z0E8 1-557): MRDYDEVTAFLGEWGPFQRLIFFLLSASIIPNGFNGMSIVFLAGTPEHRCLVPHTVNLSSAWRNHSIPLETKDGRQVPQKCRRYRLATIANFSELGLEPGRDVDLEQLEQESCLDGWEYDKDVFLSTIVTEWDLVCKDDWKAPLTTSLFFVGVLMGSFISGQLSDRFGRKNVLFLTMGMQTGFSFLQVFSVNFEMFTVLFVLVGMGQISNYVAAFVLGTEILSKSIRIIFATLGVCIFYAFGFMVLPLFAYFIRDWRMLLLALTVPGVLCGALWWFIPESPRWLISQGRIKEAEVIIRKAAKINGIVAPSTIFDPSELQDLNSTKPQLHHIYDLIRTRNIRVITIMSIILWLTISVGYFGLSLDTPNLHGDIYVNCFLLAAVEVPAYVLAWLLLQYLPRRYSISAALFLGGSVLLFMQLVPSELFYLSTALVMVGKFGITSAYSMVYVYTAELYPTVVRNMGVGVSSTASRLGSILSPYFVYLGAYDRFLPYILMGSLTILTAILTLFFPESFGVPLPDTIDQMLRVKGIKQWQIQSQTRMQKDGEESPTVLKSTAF
Kind of data set: Uptake of [3H]carnitine by Octn2-expressing HEK293 cells. The note with it: [3H]carnitine 1.0 μM, 15 sec, mock subtracted, read-out: IC 50 for carnitine uptake, Expression Model. Type of data set: cell-based.
Procedure: The cells were grown in Dulbecco’s modified Eagle’s medium (DMEM) containing 10% (v/v) fetal bovine serum (FBS) (Life Technologies, Carlsbad, CA, USA), 100 units/ml penicillin and 100 mg/ml streptomycin at 37 °C in an atmosphere of 5% CO2. Octn1- and Octn2-expressing HEK293 cells and mock cells were plated onto 24-well poly-L-lysine-coated tissue culture plates at a density of 1.0 × 10^5 cells/well. […] Uptake reaction was initiated by adding transport buffer containing a radiolabeled substrate with or without inhibitors to each well, and incubation was carried out at 37 °C for a certain period of time. The uptake was terminated by adding ice-cold transport buffer. Then, the cells were washed three times with the transport buffer to remove adhering substrate, and lysed with 0.25 mL of 0.01% Triton X. The cellular protein content was measured with a protein assay kit (Bio-Rad) using bovine serum albumin (Fraction V, Sigma Aldrich, St. Louis, MO) as a standard[35].

In a further data set the target is T3, Octn2 (Mus musculus, UniProt Q9Z0E8).
T3 construct: from tissue; host or cells: mouse kidney slices (male ICR mice)
T3 sequence (Q9Z0E8 1-557): T2 sequence (Q9Z0E8 1-557)
As to the kind of experiment: Uptake of [3H]carnitine by mice kidney slices. Type of data set: in vitro ADME. The protocol: as §1, with “The uptake reactions were carried out at 37 °C for an appropriate time, and then each slice was rapidly removed from the transport buffer, washed twice in ice-cold transport buffer, blotted on filter paper and weighed. For measurement of radiolabeled compounds, the slices were dissolved in 0.15 ml of 1 N NaOH. Then, the lysate was neutralized with HCl.” left out, “file. […]” for “file.”

The target in data set [2] is T2, Mouse Octn2. Set-up: method as in PMID 11010964. Particulars: cited from earlier work.
Another data set relates to Sglt1/2. Kind of data set: Uptake of [14C]αMG by mice kidney slices. Type of data set: in vitro ADME. Particulars: for effect on [14C]αMG uptake by kidney slices, inhibitor alone: 30 mM galactose, D-glucose free. The protocol:
as §1, §2

Setting [3] is: [3H]ergothioneine 1.0 μM, 3 min.

SMILES strings stand for the structures. Where two headings read alike, the source gives them in different places. Where a SMILES comes first, the peptide text is derived from it.

For the compound `CN/C(=N/CCSCc1nc[nH]c1C)NC#N` [Cimetidine], the IC50 in the data set on Oct2 was 8 µM; in the data set on Mate1 it was 16.3 µM. Further, the “inhibition of [3H]ergothioneine uptake by kidney slices at low inhibitor concentration” value against Octn1 is given as “no significant inhibition”. Further, on Octn1 (setting [3]), the “effect on Na+-dependent uptake of [3H]ergothioneine into mice kidney slices” value was “significantly reduced”.

`C[N+](C)(C)[C@@H](Cc1c[nH]c(=S)[nH]1)C(=O)[O-]` [Ergothioneine, ergothioneine]: the “K m in kidney slices relative to K m in Octn1-expressing HEK293 cells” value at Octn1 (81.5 μM versus 4.68 μM) turned out to be 17 times. Further, on Octn1 ([3H]ergothioneine 1.0 μM, pH 7.4, 37 °C, 1-20 min), the “uptake in the presence of Na+ versus absence of Na+” value is recorded as “significantly higher”. Moreover, the “K m of ergothioneine uptake, Mice Kidney Slice” value on Octn1 (pH 7.4, 37 °C, 3 min, 1-250 μM) is on record as 69.8 ± 27.6 µM. The “uptake of [3H]ergothioneine in 1 hr after removal of kidney compared with 25 min” value at Octn1 (slice viability, pre-incubation pH 7.4, 37 °C) worked out at 69.0 ± 6.6%. Also, the results for the “K m of ergothioneine, Expression Model” value at Mouse Octn1 and on Mouse Octn1 (listed as ergothioneine) were 4.68[22] µM and 4.68 µM, respectively.

Take `CC(C)CC(NC(=O)CN)C(=O)O` (stereo not shown) [Gly-Leu, glycyl-leucine]: the “effect on uptake of [3H]Gly-Sar by mice kidney slices” value in the data set with Pept1/2 is “decreased”.

On to `CN(CC(=O)O)C(=O)CN` [Gly-Sar, glycylsarcosine] (HELM PEPTIDE1{G.[Sar]}$$$$V2.0), for which the “K m of Gly-Sar, Expression Model (PEPT1)” value in the data set with PEPT1 is 600 (PEPT1)[37] µM. Further, the “K m of Gly-Sar uptake, Mice Kidney Slice” value in the data set on Pept1/2 (pH 7.4, 37 °C, 5 min, 10-300 μM) came to 161 ± 17 µM. The “K m of Gly-Sar, Expression Model (PEPT2)” value is 79.5 (PEPT2)[31] µM with PEPT2 and 79.5 µM in the data set on PEPT2 (listed as [^3H]Gly-Sar).

Turning to `O=C(CCc1ccc(O)cc1)c1c(O)cc(O)cc1O[C@@H]1O[C@H](CO)[C@@H](O)[C@H](O)[C@H]1O` [Phloridzin], the IC50 in the data set on Sglt2 (read-out: IC 50, Expression Model (Sglt2)) is […].

Regarding `COc1ccc(CCN(C)CCCC(C#N)(c2ccc(OC)c(OC)c2)C(C)C)cc1OC` (stereo not shown) [Verapamil], the IC50 on Mouse Octn2 [1] was 94.1 ± 8.9 µM; against Octn2 it was 363 ± 142 µM.

For the compound `C[N+](C)(C)CC(O)CC(=O)[O-]` (stereo not shown) [carnitine], the “K m value of carnitine for Octn2” value on Mouse Octn2 [2] was 22.1 µM. Also, the “inhibition of [3H]ergothioneine uptake by kidney slices at low inhibitor concentration” value against Octn1 is recorded as “no significant inhibition”. In addition, the “effect on Na+-dependent uptake of [3H]ergothioneine into mice kidney slices” value on Octn1 (setting [3]) is “significantly reduced”. For the same compound, the “uptake in the presence of Na+ versus absence of Na+” value on Octn2 ([3H]carnitine 1.3 nM, pH 7.4, 37 °C, 1-20 min) is listed as “significantly higher”.

Turning to `CC1=C(C(=O)O)N2C(=O)[C@@H](NC(=O)[C@H](N)c3ccc(O)cc3)[C@H]2SC1` [cephadroxil], the “effect on uptake of [3H]Gly-Sar by mice kidney slices” value in the data set with Pept1/2 is recorded as “decreased”.

Turning to `CCOc1ccc(Cc2cc([C@@H]3O[C@H](CO)[C@@H](O)[C@H](O)[C@H]3O)ccc2Cl)cc1` [dapagliflozin], in the data set with Sglt2 (read-out: IC 50 of Sglt2 inhibitor), the IC50 was […]. Also, in the data set on Sglt1/2 (50 nM dapagliflozin, 5 min), the “effect on [14C]αMG uptake with 30 mM galactose or 1 mM D-glucose simultaneously added” value is recorded as “decreased” and the “effect on [14C]αMG uptake by kidney slices, inhibitor alone” value was “not affected”. For the same compound, the “effect on αMG uptake in the presence of 10 mM D-glucose” value in the data set on Sglt1/2 (10 mM D-glucose, Sglt1 and Sglt2 saturated) was “no further decrease”.

`O=C[C@H](O)[C@@H](O)[C@@H](O)[C@H](O)CO` [galactose, D-galactose]: in the data set on Sglt1/2 (50 nM dapagliflozin, 5 min), the “effect on [14C]αMG uptake by kidney slices, inhibitor alone” value was “decreased”.
